Reference: publication PMC10416055, “Structural basis of bidirectional allostery across the heme in a cytochrome P450 enzyme” (The Journal of Biological Chemistry, 2023)

Tested on: CYP121

Clc1ccccc1C(c1ccccc1)(c1ccccc1)n1ccnc1 [clotrimazole]
absorbance (Soret peak) of ligand-bound CYP121: 424 nm

CC(=O)N1CCN(c2ccc(OCC3COC(Cn4ccnc4)(c4ccc(Cl)cc4Cl)O3)cc2)CC1 (centres unmarked) [ketoconazole]
absorbance (Soret peak) of ligand-bound CYP121: 421 nm
